SMILES strings stand for the structures.

The experiment concerns HEK293T cells. Kind of experiment: In vitro transfection efficiency of LNPs encapsulating SamRNA-GFP in HEK293T cells (flow cytometry). The conditions noted are these: modular lipid/DOPE/DMG-PEG2000 40/10/2 mole ratio, 100 ng RNA, 24 hours. In kind it is cell-based. On the procedure: The modular lipids of the disclosure were mixed with at least one of ionizable lipid, DOPE, cholesterol (Chol), and/or DMG-PEG2000 in ethanol at a predetermined molar ratio. Ionizable lipid: SamRNA molar ratio of 6:1 was used to prepare an organic phase. SamRNA-LUC or SamRNA-GFP was diluted in 50 mM citrate buffer (pH 4.5, Fisher) or PBS (pH 7.4, Fisher) to prepare an aqueous phase. The SamRNA was stored at −80° C. and was thawed on ice prior to use. The ethanol and aqueous phases were mixed at a 1:3 ratio by pipette. The resultant LNPs were purified by ultrafiltration (100,000 cut-off, MilliporeSigma™ Amicon™ Ultra-15 Centrifugal Filter Units) at 4° C. prior to injection.
LNPs containing SamRNA-GFP or SamRNA-LUC were added into 96-well plate at 100 ng/well pre-seeded with HEK293, C2C12 or MC38 cells. After a 24 hour incubation at 37° C. and 5% CO2, the SamRNA-LUC transfection efficiency was measured by plate reader (Perkin Elmer Envision 2104) and GFP SamRNA transfection efficiency was measured by flow cytometry (BD FACSymphony™ A5 SE Cell Analyzer).
The transfection efficacy of LNPs formulated using modular lipids P161F5, P161F6 or P161F10; DOPE and DMG-PEG2000 (modular lipid/DOPE/DMG-PEG2000, 40/10/2 mole ratio) encapsulating LNP-SamRNA-GFP were studied using HEK293T cells in 96-well plates. […]
In general terms: Flow cytometry measures light scatter and fluorescence of single cells or particles in a stream.

Take `CCCCCCCCCCCCC(CCCCCCCCCC)CN(C(=O)CCC(C)C1CCC2C3CC(O)C4CC(O)CCC4(C)C3CCC12C)C(C(=O)NC12CC3CC(CC(C3)C1)C2)C1CCN(CC)CC1` (centres unmarked) [P161F6, N-(2-(((1s,3s)-adamantan-1-yl)amino)-1-(1-ethylpiperidin-4-yl)-2-oxoethyl)-N-(2-decyltetradecyl)-4-(3,6-dihydroxy-10,13-dimethylhexadecahydro-1H-cyclopenta[a]phenanthren-17-yl) pentanamide]: the “transfection efficiencies compared with four-component LNPs containing MC3 and SM102” value is “comparable or higher”. As for `CCCCCCCCCCC(CCCCCCCC)CN(C(=O)CCC(C)C1CCC2C3CC(O)C4CC(O)CCC4(C)C3CCC12C)C(CC1CCN(C)CC1)C(=O)NC12CC3CC(CC(C3)C1)C2` (centres unmarked) [P161F10, N-(1-(((1s,3s)-adamantan-1-yl)amino)-3-(1-methylpiperidin-4-yl)-1-oxopropan-2-yl)-4-(3,6-dihydroxy-10,13-dimethylhexadecahydro-1H-cyclopenta[a]phenanthren-17-yl)-N-(2-octyldodecyl)pentanamide], the “transfection efficiencies compared with four-component LNPs containing MC3 and SM102” value is “comparable or higher”.
